Measured values as given in paper PMC6500773 (Psychopharmacology, 2018).
Where two headings read alike, the source gives them in different places.

Assays:
[1] = target: T1, hNET (Homo sapiens, UniProt P23975); experiment: biochemical; assay type: binding
[2] = target: T2, hDAT (Homo sapiens, UniProt Q01959); experiment: Inhibition of [125I]RTI-55 binding, HEK-hDAT membranes; details: for fold decrease in hDAT affinity: compared to pentedrone
[3] = target: T2, hDAT; experiment: Inhibition of [3H]DA uptake by HEK-hDAT cells; assay type: cell-based; details: for Ratio DAT/SERT: 1/(DAT IC50) divided by 1/(SERT IC50), uptake, higher = more DAT selective
[4] = target: T1, hNET; experiment: cell-based
[5] = target: T3, hSERT (Homo sapiens, UniProt P31645); experiment: Inhibition of [3H]5-HT uptake by HEK-hSERT cells; assay type: cell-based; details: for fold increase in hSERT uptake potency: compared to pentedrone; for selectivity for SERT over DAT (uptake potency): uptake inhibition potencies
T3 sequence (P31645 whole entry): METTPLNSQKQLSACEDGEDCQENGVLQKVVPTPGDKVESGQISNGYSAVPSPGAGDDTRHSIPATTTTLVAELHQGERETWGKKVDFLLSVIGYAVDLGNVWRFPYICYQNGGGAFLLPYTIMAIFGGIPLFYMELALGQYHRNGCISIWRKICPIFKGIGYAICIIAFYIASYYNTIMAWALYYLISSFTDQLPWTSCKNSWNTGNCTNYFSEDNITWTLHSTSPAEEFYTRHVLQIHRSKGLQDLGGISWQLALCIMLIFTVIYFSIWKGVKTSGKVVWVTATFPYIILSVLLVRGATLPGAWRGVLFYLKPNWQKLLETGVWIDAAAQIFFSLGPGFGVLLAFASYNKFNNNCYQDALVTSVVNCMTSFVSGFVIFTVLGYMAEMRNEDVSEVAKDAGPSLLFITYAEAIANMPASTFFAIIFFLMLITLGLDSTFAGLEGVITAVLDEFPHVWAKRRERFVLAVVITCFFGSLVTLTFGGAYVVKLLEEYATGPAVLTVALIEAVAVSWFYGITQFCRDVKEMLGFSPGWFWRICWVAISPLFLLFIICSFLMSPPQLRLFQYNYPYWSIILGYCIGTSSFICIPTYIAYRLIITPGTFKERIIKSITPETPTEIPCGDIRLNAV

[6] = target: T3, hSERT; experiment: Inhibition of [125I]RTI-55 binding, HEK-hSERT membranes
[7] = target: T1, hNET; experiment: Drug-induced release of preloaded [3H]NE from HEK-hNET cells; assay type: cell-based; details: for EC50: read-out: Drug-induced release of [3H]neurotransmitter EC50 ± sem, hNET [3H]NE, HEK-hNET cells; for % maximum release ± sem, hNET [3H]NE: relative to maximal AUC induced by METH (0.3 or 1 μM); for releasing efficacy at hNET: [3H]NE release
[8] = target: T3, hSERT; experiment: Drug-induced release of preloaded [3H]5-HT from HEK-hSERT cells; assay type: cell-based; details: for % maximum release ± sem, hSERT [3H]5-HT: relative to maximal AUC induced by METH (0.3–1 mM); for releasing efficacy at hSERT: [3H]5-HT release
[9] = target: T2, hDAT; experiment: Drug-induced release of preloaded [3H]DA from HEK-hDAT cells; assay type: cell-based; details: for % maximum release ± sem, hDAT [3H]DA: relative to maximal AUC induced by METH (1 or 10 μM); for releasing efficacy at hDAT: [3H]DA release
[10] = read-out: Inhibition of [125I]RTI-55 binding Ki ± sem, hNET, HEK-hNET membranes
[11] = read-out: Inhibition of [125I]RTI-55 binding Ki ± sem, hDAT, HEK-hDAT membranes
[12] = read-out: Inhibition of [3H]neurotransmitter uptake IC50 ± sem, hNET [3H]NE, HEK-hNET cells

T1 sequence (P23975 whole entry): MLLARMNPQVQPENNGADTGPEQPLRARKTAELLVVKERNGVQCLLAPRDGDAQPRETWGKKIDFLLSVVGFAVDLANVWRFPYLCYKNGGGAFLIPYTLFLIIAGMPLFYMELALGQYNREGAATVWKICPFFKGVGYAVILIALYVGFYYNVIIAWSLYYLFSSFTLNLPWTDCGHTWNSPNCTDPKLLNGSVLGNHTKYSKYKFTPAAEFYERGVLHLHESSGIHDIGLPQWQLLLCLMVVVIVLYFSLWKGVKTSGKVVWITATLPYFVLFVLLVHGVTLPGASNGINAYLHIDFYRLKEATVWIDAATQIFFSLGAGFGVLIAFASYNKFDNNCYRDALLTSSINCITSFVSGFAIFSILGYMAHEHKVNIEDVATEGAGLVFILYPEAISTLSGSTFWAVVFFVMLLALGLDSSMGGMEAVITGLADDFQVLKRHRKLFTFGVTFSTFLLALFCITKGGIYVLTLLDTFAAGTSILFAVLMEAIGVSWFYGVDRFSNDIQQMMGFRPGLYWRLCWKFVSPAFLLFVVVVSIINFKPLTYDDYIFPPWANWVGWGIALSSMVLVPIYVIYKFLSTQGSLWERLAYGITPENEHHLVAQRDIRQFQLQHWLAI
T2 sequence (Q01959 whole entry): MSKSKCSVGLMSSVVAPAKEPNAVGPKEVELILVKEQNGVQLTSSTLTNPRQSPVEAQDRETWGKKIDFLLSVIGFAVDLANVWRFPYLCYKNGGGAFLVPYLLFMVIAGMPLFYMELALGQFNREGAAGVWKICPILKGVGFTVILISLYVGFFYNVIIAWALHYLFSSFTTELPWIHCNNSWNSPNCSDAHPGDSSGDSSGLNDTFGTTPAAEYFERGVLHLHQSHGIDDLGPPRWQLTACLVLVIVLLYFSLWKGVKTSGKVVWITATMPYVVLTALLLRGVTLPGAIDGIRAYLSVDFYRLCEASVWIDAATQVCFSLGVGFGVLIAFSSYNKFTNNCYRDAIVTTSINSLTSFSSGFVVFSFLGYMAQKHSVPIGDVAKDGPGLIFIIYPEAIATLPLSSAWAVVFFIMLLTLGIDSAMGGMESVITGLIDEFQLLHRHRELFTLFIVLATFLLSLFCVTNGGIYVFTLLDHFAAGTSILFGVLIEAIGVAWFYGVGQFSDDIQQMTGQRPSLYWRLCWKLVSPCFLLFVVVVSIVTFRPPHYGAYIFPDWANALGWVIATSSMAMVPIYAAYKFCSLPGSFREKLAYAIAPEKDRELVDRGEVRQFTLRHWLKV

Compound | Ki [1, 10] [nM] | Ki [2, 11] [nM] | Ratio DAT/SERT [3] | IC50 [4, 12] [nM] | EC50 [7] [nM] | % maximum release ± sem, hNET [3H]NE [7] [%] | % maximum release ± sem, hSERT [3H]5-HT [8] [%] | % maximum release ± sem, hDAT [3H]DA [9] [%] | also measured
CCCCC(NCC)C(=O)c1ccccc1 (stereo not drawn) [N-Et-Hexedrone, α-ethylaminohexanophenone] | 1260 ± 43 | 171 ± 38 | 100 | 97.8 ± 8.3 | – | – | – | – | –
CCCC(C(=O)c1ccc(F)cc1)N1CCCC1 (stereo not drawn) [4-F-α-PVP, 4-fluoro-α–pyrrolidinopentiophenone] | – | 376 ± 70 | 360 | – | – | – | – | – | Ki ([1]; read-out: Inhibition of [125I]RTI-55 binding Ki ± sem, hNET): 1100 nM; IC50 ([4]; read-out: Inhibition of [3H]neurotransmitter uptake IC50 ± sem, hNET [3H]NE): 118 nM
CCCCC(C(=O)c1ccc(F)cc1)N1CCCC1 (stereo not drawn) [4-F-α-PHP, 4’-fluoro-α–pyrrolidinohexanophenone] | – | – | 240 | – | – | – | – | – | Ki [1]: 1730 ± 250 nM; Ki [2]: 122 ± 27 nM; IC50 [3]: 38.2 ± 4.4 nM; IC50 [5]: 9110 ± 540 nM; Ki [6]: 8010 ± 840 nM; IC50 [4]: 218 ± 29 nM
CCCC(NCC)C(=O)c1ccc(C)cc1 (stereo not drawn) [4-MEAP, 4-methyl-α-ethylaminopentiophenone] | 576 ± 85 | 123 ± 26 | 6.4 | 83 ± 18 | – | – | – | – | fold decrease in hDAT selectivity ([3]; compared to pentedrone): 8 fold; fold decrease in DAT selectivity ([3]; compared to α-EPP): 10 fold; fold increase in hSERT uptake potency [5]: 8 fold; fold increase in hSERT affinity ([6]; compared to pentedrone): 20 fold
CCCNC(CCC)C(=O)c1ccccc1 (stereo not drawn) [N-propyl pentedrone, α-propylaminopentiophenone] | 3760 ± 820 | 389 ± 67 | 330 | 306 ± 79 | – | – | – | – | –
CCCC(NC)C(=O)c1ccc(C)cc1 (stereo not drawn) [4-MPD, 4-methyl pentedrone] | 3390 ± 480 | 1450 ± 310 | – | 307 ± 61 | – | – | – | – | fold decrease in hDAT affinity [2]: 4- to 5 fold; fold increase in hSERT uptake potency [5]: 15- to 17 fold
CCNC(C)Cc1ccc2ccoc2c1 (stereo not drawn) [6-EAPB, N-ethyl-α-methyl-6-benzofuranethanamine] | 772 ± 44 | 89 ± 22 | 1.4 | 42 ± 14 | – | – | – | – | –
CCCC(C(=O)c1ccc2c(c1)OCO2)N(C)C (stereo not drawn) [bk-DMBDP, N,N-dimethylpentylone] | 2000 ± 140 | 354 ± 73 | 11 | 212 ± 68 | – | – | – | – | –
CCCC(NCC)C(=O)c1ccccc1 (stereo not drawn) [α-EPP, α-ethylaminopentiophenone] | 700 ± 180 | 182 ± 22 | 64 | 101 ± 24 | – | – | – | – | –
CNC(C)C(=O)c1ccccc1 (stereo not drawn) [MCAT, methcathinone, reference compound] | 5960 ± 610 | 7520 ± 990 | 130 | 45.2 ± 4.2 | 400 ± 120 | 75 ± 10 | 65.0 ± 0.6 | 79.0 ± 3.2 | fold lower release potency at SERT ([8]; compared to release potency at NET and DAT): 50 fold
CCCNC(C)C(=O)c1ccc2c(c1)OCO2 (stereo not drawn) [PRONE, 3,4-methylenedioxy-N-propylcathinone] | 22500 ± 8500 | 6800 ± 1900 | 0.95 | 6040 ± 890 | – | – | – | – | –
CCCC(C(=O)c1ccc2c(c1)CCCC2)N1CCCC1 (stereo not drawn) [TH-PVP, 3’,4’-tetramethylene-α-pyrrolidinovalerophenone] | 6950 ± 340 | 3090 ± 300 | 0.087 | 2130 ± 81 | > 10000 | <1 | <1 | <1 | releasing efficacy at hNET [7]: minimal to no releasing efficacy; selectivity for SERT over DAT (uptake potency) [5]: 12 fold; releasing efficacy at hSERT [8]: minimal to no releasing efficacy; releasing efficacy at hDAT [9]: minimal to no releasing efficacy
CCCC(NC)C(=O)c1ccc(Cl)cc1 (stereo not drawn) [4-CPD, 4-chloro pentedrone] | 4540 ± 890 | 1620 ± 400 | 1.3 | 470 ± 140 | – | – | – | – | fold decrease in hDAT affinity [2]: 4- to 5 fold; fold increase in hSERT uptake potency [5]: 15- to 17 fold
CNC(C)Cc1ccc2ccoc2c1 (stereo not drawn) [6-MAPB, N,α-dimethyl-6-benzofuranethanamine] | 1480 ± 270 | 599 ± 9.9 | 9.5 | 33.1 ± 2 | 640 ± 210 | 60 ± 11 | 107.0 ± 2.3 | 40.6 ± 8.7 | releasing efficacy at hSERT [8]: fully efficacious
CC(N)Cc1ccc2ccoc2c1 (stereo not drawn) [6-APB, α-methyl-6-benzofuranethanamine] | 2450 ± 200 | 1040 ± 160 | 2.4 | 19.8 ± 4.4 | 51 ± 12 | 69 ± 12 | 119 ± 16 | 68.2 ± 9.0 | releasing efficacy at hSERT [8]: fully efficacious releaser
CC(C(=O)c1ccc2c(c1)OCO2)N(C)C (stereo not drawn) [Dimethylone, bk-MDDMA] | > 10000 | 4210 ± 270 | >4.1 | 4200 ± 880 | > 10000 | 9.9 ± 2.2 | <1 | <1 | –
CCC(C(=O)c1ccc2c(c1)OCO2)N(C)C (stereo not drawn) [Dibutylone, bk-DMBDB] | 8400 ± 2100 | 581 ± 76 | >32 | 923 ± 44 | – | – | – | – | –
CCCC(C(=O)c1ccc(Cl)cc1)N1CCCC1 (stereo not drawn) [4-Cl-α-PVP, 4’-chloro-α–pyrrolidinopentiophenone] | 281 ± 16 | 61 ± 15 | 83 | 29.1 ± 6.7 | > 10000 | 9.4 ± 6.0 | <1 | <1 | releasing efficacy at hNET [7]: minimal to no releasing efficacy; releasing efficacy at hSERT [8]: minimal to no releasing efficacy; releasing efficacy at hDAT [9]: minimal to no releasing efficacy
CCCCCCC(C(=O)c1ccccc1)N1CCCC1 (stereo not drawn) [PV9, 1-phenyl-2-(pyrrolidin-1-yl)octan-1-one] | – | – | >150 | – | – | – | – | – | Ki [1]: 468 ± 33 nM; Ki [2]: 18 ± 3.7 nM; IC50 [3]: 50.2 ± 6.6 nM; IC50 [5]: > 7400 nM; Ki [6]: 2860 ± 430 nM
CCNC(C)C(=O)c1ccc(Cl)cc1 (stereo not drawn) [4-CEC, 4-Cl-ethcathinone] | 16300 ± 5700 | 4170 ± 530 | 0.39 | 1720 ± 240 | > 100000 | 5.9 ± 2.5 | – | 1.17 ± 0.05 | releasing efficacy at hNET [7]: minimal releasing efficacy; selectivity for SERT over DAT (uptake potency) [5]: 3 fold; releasing efficacy at hSERT [8]: full releasing efficacy; releasing efficacy at hDAT [9]: minimal releasing efficacy
CCCC(NCC)C(=O)c1ccc2c(c1)OCO2 (stereo not drawn) [N-Et pentylone, N-ethyl pentylone] | 2380 ± 620 | 102 ± 15 | 8.4 | 114 ± 29 | – | 15.6 ± 8.4 | 7.2 ± 1.4 | <1 | fold increase in hDAT/hSERT selectivity ([3]; compared to pentylone): ~ 2 fold
